≈ marks a conversion by molar mass, not a printed value. Calls of active or inactive are those of the source. The rule behind the calls is not given here.
Columns and labels:
Assay type in all cases: functional, organism-based
[1] = test system: Ceratobasidium cereale; assay: Antifungal activity against Ceratobasidium cereale two generation induced iprodione-resistant wheat field isolate HQ12R assessed as mycelial growth inhibition in potato dextrose agar media at 25 degC measured after 3 days; details: 72 h
[2] = test system: Ceratobasidium cereale; assay: Antifungal activity against Ceratobasidium cereale iprodione-sensitive wheat field isolate HN100 assessed as mycelial growth inhibition in potato dextrose agar media at 25 degC measured after 3 days; details: isolate HN100, 72 h
[3] = test system: Ceratobasidium cereale; assay: Antifungal activity against Ceratobasidium cereale iprodione-sensitive wheat field isolate HQ3 assessed as mycelial growth inhibition in potato dextrose agar media at 25 degC measured after 3 days; details: isolate HQ3, 72 h
[4] = test system: Ceratobasidium cereale; assay: Antifungal activity against Ceratobasidium cereale iprodione-sensitive wheat field isolate HQ12 assessed as mycelial growth inhibition in potato dextrose agar media at 25 degC measured after 3 days; details: isolate HQ12, 72 h
[5] = test system: Ceratobasidium cereale; assay: Antifungal activity against Ceratobasidium cereale iprodione-sensitive wheat field isolate HN49 assessed as mycelial growth inhibition in potato dextrose agar media at 25 degC measured after 3 days; details: isolate HN49, 72 h
[6] = test system: Ceratobasidium cereale; assay: Antifungal activity against Ceratobasidium cereale two generation induced iprodione-resistant wheat field isolate HL64R assessed as mycelial growth inhibition in potato dextrose agar media at 25 degC measured after 3 days; details: 72 h
[7] = test system: Ceratobasidium cereale; assay: Antifungal activity against Ceratobasidium cereale iprodione-sensitive wheat field isolate HQ31 assessed as mycelial growth inhibition in potato dextrose agar media at 25 degC measured after 3 days; details: isolate HQ31, 72 h
[8] = test system: Ceratobasidium cereale; assay: Antifungal activity against Ceratobasidium cereale iprodione-sensitive wheat field isolate HD10 assessed as mycelial growth inhibition in potato dextrose agar media at 25 degC measured after 3 days; details: isolate HD10, 72 h
[9] = test system: Ceratobasidium cereale; assay: Antifungal activity against Ceratobasidium cereale two generation induced iprodione-resistant wheat field isolate HN49R assessed as mycelial growth inhibition in potato dextrose agar media at 25 degC measured after 3 days; details: 72 h
[10] = test system: Ceratobasidium cereale; assay: Antifungal activity against Ceratobasidium cereale two generation induced iprodione-resistant wheat field isolate HQ31R assessed as mycelial growth inhibition in potato dextrose agar media at 25 degC measured after 3 days; details: 72 h
[11] = test system: Ceratobasidium cereale; assay: Antifungal activity against Ceratobasidium cereale two generation induced iprodione-resistant wheat field isolate HD10R assessed as mycelial growth inhibition in potato dextrose agar media at 25 degC measured after 3 days; details: 72 h
[12] = test system: Ceratobasidium cereale; assay: Antifungal activity against Ceratobasidium cereale two generation induced iprodione-resistant wheat field isolate HQ3R assessed as mycelial growth inhibition in potato dextrose agar media at 25 degC measured after 3 days; details: 72 h
[13] = test system: Ceratobasidium cereale; assay: Antifungal activity against Ceratobasidium cereale iprodione-sensitive wheat field isolate HL64 assessed as mycelial growth inhibition in potato dextrose agar media at 25 degC measured after 3 days; details: isolate HL64, 72 h
[14] = test system: Ceratobasidium cereale; assay: Antifungal activity against Ceratobasidium cereale two generation induced iprodione-resistant wheat field isolate HN100R assessed as mycelial growth inhibition in potato dextrose agar media at 25 degC measured after 3 days; details: 72 h
[15] = test system: Ceratobasidium cereale; assay: Antifungal activity against Ceratobasidium cereale wheat field isolate assessed as mycelial growth inhibition at 25 degC measured after 3 days; details: 72 h
[16] = test system: Ceratobasidium cereale; assay: Antifungal activity against Ceratobasidium cereale wheat field isolate assessed as mycelial growth inhibition at 10 ug/mL in potato dextrose agar media 25 degC measured after 5 days

## CC1COC(Cn2cncn2)(c2ccc(Oc3ccc(Cl)cc3)cc2Cl)O1 (stereo unspecified) [DIFENOCONAZOLE]
[1]
  EC50: 0.092 µg/mL (≈ 0.226 µM)
[2]
  EC50: 0.095 µg/mL (≈ 0.234 µM)
[3]
  EC50: 0.04 µg/mL (≈ 0.0985 µM)
[4]
  EC50: 0.082 µg/mL (≈ 0.202 µM)
[5]
  EC50: 0.07 µg/mL (≈ 0.172 µM)
[6]
  EC50: 0.057 µg/mL (≈ 0.14 µM)
[7]
  EC50: 0.037 µg/mL (≈ 0.0911 µM)
[8]
  EC50: 0.066 µg/mL (≈ 0.162 µM)
[9]
  EC50: 0.074 µg/mL (≈ 0.182 µM)
[10]
  EC50: 0.06 µg/mL (≈ 0.148 µM)
[11]
  EC50: 0.07 µg/mL (≈ 0.172 µM)
[12]
  EC50: 0.034 µg/mL (≈ 0.0837 µM)
[13]
  EC50: 0.032 µg/mL (≈ 0.0788 µM)
[14]
  EC50: 0.01 µg/mL (≈ 0.0246 µM)
[15]
  EC50: 0.062 µg/mL (≈ 0.153 µM)

## CC(C)NC(=O)N1CC(=O)N(c2cc(Cl)cc(Cl)c2)C1=O [IPRODIONE]
[1]
  EC50: > 100 µg/mL
[2]
  EC50: 0.249 µg/mL (≈ 0.754 µM)
[3]
  EC50: 0.357 µg/mL (≈ 1.08 µM)
[4]
  EC50: 0.725 µg/mL (≈ 2.2 µM)
[5]
  EC50: 0.481 µg/mL (≈ 1.46 µM)
[6]
  EC50: > 100 µg/mL
[7]
  EC50: 0.35 µg/mL (≈ 1.06 µM)
[8]
  EC50: 0.46 µg/mL (≈ 1.39 µM)
[9]
  EC50: > 100 µg/mL
[10]
  EC50: > 100 µg/mL
[11]
  EC50: > 100 µg/mL
[12]
  EC50: > 100 µg/mL
[16]
  Activity: Active
[13]
  EC50: 0.372 µg/mL (≈ 1.13 µM)
[14]
  EC50: > 100 µg/mL
[15]
  EC50: 0.419 µg/mL (≈ 1.27 µM)

## N#Cc1c[nH]cc1-c1cccc2c1OC(F)(F)O2 [FLUDIOXONIL]
[1]
  EC50: > 100 µg/mL
[2]
  EC50: 0.024 µg/mL (≈ 0.0967 µM)
[3]
  EC50: 0.015 µg/mL (≈ 0.0604 µM)
[4]
  EC50: 0.032 µg/mL (≈ 0.129 µM)
[5]
  EC50: 0.026 µg/mL (≈ 0.105 µM)
[6]
  EC50: > 100 µg/mL
[7]
  EC50: 0.026 µg/mL (≈ 0.105 µM)
[8]
  EC50: 0.05 µg/mL (≈ 0.201 µM)
[9]
  EC50: > 100 µg/mL
[10]
  EC50: > 100 µg/mL
[11]
  EC50: > 100 µg/mL
[12]
  EC50: > 100 µg/mL
[13]
  EC50: 0.022 µg/mL (≈ 0.0886 µM)
[14]
  EC50: > 100 µg/mL
[15]
  EC50: 0.033 µg/mL (≈ 0.133 µM)
